The source of these data is patent US9072730B2, “Method of improving cognitive functions in individuals with down syndrome and/or alzheimer's disease” (The Board of Trustees of the Leland Stanford Junior …, priority 2009, dated 2015).

Entries after “also recorded” stand apart in the source; their conditions may differ.

One data set deals with acute hippocampal slices. The data set is described as follows: Evoked field potentials in acute hippocampal slices (dentate gyrus). Also on record: species or system mouse. Here is the method:
Three and 6-month-old 2N and Ts65Dn mice were anesthetized with isoflurane before decapitation. The brain was quickly removed and immersed for 2-3 min in ice-cold artificial CSF (ACSF) [containing (in mM): 119 NaCl, 2.5 Kcl, 2.5 CaCl2, 1.3 MgSO4, 1 NaH2PO4, 26 NaHCO3, and 10 glucose], osmolarity 310, continuously bubbled with 95% 02 and 5% CO2, pH 7.4. The HC was extracted and cut in ice-cold ACSF with a vibratome (Leica 1000; Leica, Nussloch, Germany) into 350-μm-thick transverse slices, which were allowed to recover in oxygenated ACSF at 32° C. for 30 min, and then at room temperature for an additional 1-10 hr before experimental recordings. Slices were transferred into the recording chamber and superfused with ACSF at a constant rate of 2.5 ml/min at a temperature of 32° C. Recording electrodes were made of borosilicate glass capillaries (1B150F, World Precision Instruments, Sarasota, Fla.) and were filled with 2M NaCl (resistance […]). Mono polar stimulating electrode was maid of Pt/Ir wires with diameter 25.4 μm (PTT0110, World Precision Instruments, Sarasota, Fla.) and had 100-μm-long exposed tip. The stimulating electrode was inserted under visual control perpendicular to the slice surface into the middle molecular layer (MML), and the recording electrode into the granule cell layer of the DG upper blade. The distance between the electrodes was 250-300 μm. Testing stimuli evoked field responses with population spike amplitudes 65-75% of maximum. The amplitude of the population spike was measured as follows: a line was drawn at the base of the population spike connecting the first and second peaks of the field response, a second line was drawn at the peak of the population spike (i.e., at the peak of the downward deflection), and at the peak of the spike, a line was drawn vertically between these two lines, thus giving the amplitude of the population spike. The magnitude of the fEPSP was measured as the initial slope of the linear part of the fEPSP, which occurred 0.1-1 ms after the presynaptic volley. […]

For data set [1] the following is noted: based on the literature; cited from earlier work.
The conditions of data set [2]: subcutaneous administration; cited from earlier work.
Data set [3] in a line: Norepinephrine and L-DOPS determination in tissue by UV-HPLC. In kind it is in vivo, mouse. How it is done: Mice were deeply anesthetized using sodium pentobarbital (200 mg/kg i.p.) and brains were extracted immediately. The right hippocampal region dissected out on ice, weighed, and frozen shortly after. The rest of the right hemisphere was also weighed and collected. For homogenization, 1 ml of ice-cold 0.05 M phosphoric acid (Sigma) with 10 μl of […] of 3,4-Dihydrxybenzylamine hydrobromide (DHBA; Sigma) used as an internal standard. The tissue samples were sonicated for 3 seconds on ice. The resulting homogenates were centrifuged at 15,000 g for 15 minutes at 4° C. The resulting supernatant was transferred to a conical tube containing 1 ml of 3M tris (pH: 8.6) with 90 mg acid-washed aluminum oxide (Sigma). The mixture was rotated at 4° C. overnight. The alumina was centrifuged for 10 seconds, and washed briefly with 6 mM tris (pH: 8.6) and 3 changes of water (HPLC grade). After final centrifugation, the resulting precipitate was mixed with 1.8 ml of 0.05M H3PO4 (Sigma, puriss>99%) for 30 minutes at 4° C. The solution was filtered with a 0.2 μm filter and used for UV-based HPLC. 4.5 months-old (N=4 pairs of 2N and Ts65Dn) and 18 months (2N; N=8 and Ts65Dn; N=6) were used for this study.
A UV-HPLC machine (Varian, Chicago) equipped with an auto sampler and 2 pumps was used for this study. The machine was connected to a Varian column (Pursuit PFP, 150 mm×4.6 mm, 5 μm, A3050150×046) optimized for catecholamine measurements in aqueous conditions. The mobile phase was consisted of 60% 0.1M citric acid (Sigma) and 40% 0.1M Na2HPO4 both in 0.3 mM HPLC-grade sodium octyl sulfate salt (Sigma) (7). The mobile phase was degassed using 0.2 μm filter and refreshed every week. The flow rate was set at 1.0 ml/min at room temperature and the detection was performed at 270 nm. To achieve maximum performance, the mobile phase was pumped at 0.1 ml/min flow the night before the experiment. The column was washed thoroughly with 50% methanol after each experiment. To calculate the amounts of catecholamines, the height of the peak generated by DHBA, NE, and L-DOPS were measured using Variant software. […]

Data set [4] has as its system Ts65Dn mice. The experiment in a line: Nesting behavior analysis. Type of data set: in vivo, mouse. How it is done: The nesting experiment was performed using 10 pairs of 6-month-old male Ts65Dn (CD=10, CD+L-DOPS=10) and 2N (CD=10, CD+L-DOPS=10) mice. The nesting behavior was analyzed in three different periods (sham, drug and no treatment): Each mouse was placed in individual mouse cages for 4 days. On day 5, each mouse was injected subcutaneously at 1 PM with 50 μl/g of (2.5 mg/ml) carbidopa (Sigma) and returned to their individual cages. The next day, mice were injected the same amount of carbidopa as the day before at 1 PM. At 6 PM, the mice were transferred to a rat cage and one nestlet was placed in each cage. Next morning, the nesting was scored by three investigators blind to the genotype. This was followed by weighing the remaining nestlets. Following the sham experiment, mice were returned to their individual mouse cages without any nestlets for 6 days. On day 7, the mice were injected subcutaneously (50 μl/g) of a combination of (20 mg/ml) L-DOPS and carbidopa (2.5 mg/ml) at 1 PM and were returned to their individual mouse cages. Next day the injection was repeated at 1 PM and at 6 PM the mice were transferred to clean rat cage with one nestlet. The quality and quantity of nesting was scored the morning after. The mice were kept in individual cages for two weeks to minimize the effects of L-DOPS treatment on nesting. […] The quality and quantity of nesting was scored the morning after.

Data set [5] deals with Ts65Dn mice. The data set is described as follows: Contextual and tone-cued fear conditioning test. In kind it is in vivo, mouse. Here is the method:
Contextual and tone-cued fear conditioning tests were performed using the Fear Conditioning Video Tracking System (Med-Associates Inc., St. Albans, Vt.). To reduce the stress, each mouse was handled for 5 days. After that, the mice underwent three days of Training day, Tone-Cued in novel context testing day, and Contextual testing day. In the first day, mice went through the Training session. Prior to conditioning, each mice had 3 min to explore the Test Chamber (baseline activity and then they received five tone-shock pairings). The shock (0.5 mA, 50 Hz, 2 sec) delivered after 18 sec from the end of the tone (70 dB, 2 kHz, 20 sec). Therefore, an empty trace interval interposed between the tone and the shock in each conditional stimulus-unconditional stimulus pairing. On the second day (Tone-cued testing day), mice were placed in the novel context (new olfactory and visual cues) for 3 min and subsequently were presented three tone presentations (same as the Training Day) without any shocks. On the last day of the experiment, mice were placed in the context similar to the Training Day for 5 min without any tones or shocks. The effect of L-DOPS on fear conditioning was investigated by treating Ts65Dn mice and their controls 5 hours before the start of each test. The treated mice underwent three days of Training day, Cued testing day and Contextual testing day. L-DOPS was diluted (20 mg/ml) in 0.2M HCL containing 2 mg/ml ascorbic acid. The pH was neutralized with 10M NAOH just before the injection. To counter the peripheral effects of L-DOPS, S-(−) carbidopa was used. Carbidopa was diluted in the same solution (2.5 mg/ml) as L-DOPS. Two groups (10 pairs each) of 5-6-month-old male Ts65Dn and 2N mice were either injected with carbidopa (2.5 mg/ml) or a combination of 20 mg/ml L-DOPS and 2.5 mg/ml carbidopa (50 μl/g subcutaneously) five hours before the start in all 3 days of the experiment. Six-months-old 2N (CD=13, CD+L-DOpS=11) and Ts65Dn (CD=10, CD+L-DOPS=9) mice were used for this study. The effect of β1-partial agonist (xamoterol) on Ts65Dn mice and their controls […]. Xamoterol hemifumarate (Tocris Bioscience, Ellisville, Mich.) was freshly diluted in saline. Two groups of 9-month-old (19 2N and 15 Ts65Dn) mice were subcutaneously injected either with xamoterol (3 mg/kg) or saline (10 ml/kg) exactly […] before all 3 days of fear conditioning test. Nine-months-old 2N (saline=4, xamoterol=8), and Ts65Dn (saline=4, xamoterol=6) mice were used for this study. The data tested using one-way analysis of variance (ANOVA) between the genotypes. The significance of genotype and treatment effects was confirmed by a non-parametric Mann-Whitney U-tests.

Consider `CC(C)NCC(O)c1ccc(O)c(O)c1` (stereo not drawn) [ISO], for which the “effect on slope of fEPSPs, Ts65Dn versus 2N” value with acute hippocampal slices (6-month-old mice, stimulation of middle molecular layer, recording in granule cell layer) is “stronger effects on slope of fEPSPs in Ts65Dn than 2N mice”. Moreover, in the data set with acute hippocampal slices (ISO 10 μM, 10 min, slices of 6-month old Ts65Dn and age-matched 2N), the “recorded response 30 min after application, Ts65Dn versus 2N” value is on record as “much stronger response in Ts65Dn than 2N mouse”. Besides, the “change in population spike amplitude of fEPSPs” value in the data set with acute hippocampal slices (ISO 10 μM, 3- and 6-months-old 2N and Ts65Dn mice) is recorded as “significant increase in population spike amplitude”. Moreover, the “duration of enhancement of population spike amplitude” value in the data set on acute hippocampal slices (ISO 10 μM, 3-month-old 2N mice) is listed as “at least 30 min”. The “duration of increase of population spike amplitude” value in the data set with acute hippocampal slices (ISO 10 μM, 6 months old mice) is reported as greater than 1 h. In the data set on acute hippocampal slices (slices at age 3 months and 6 months, 2N and Ts65Dn mice), the “slope and amplitude of excitatory postsynaptic potentials (EPSPs)” value was “increase in both the slope and amplitude”. Further, in the data set on acute hippocampal slices (slices at age 6 months), the “EPSP responses in Ts65Dn slices compared with 2N” value is listed as “consistently more robust”.

In the case of `N[C@H](C(=O)O)[C@H](O)c1ccc(O)c(O)c1` [L-DOPS, L-threo-3,4-dihydroxyphenylserine], the “dose used safely in humans” value in data set [1] is “up to 1 gram per day”. For the same compound, in data set [2], the “time to maximum brain NE levels” value is no more than 5 h. In data set [3] (after L-DOPS 1 mg/g with carbidopa 0.125 mg/g), the “NE levels in the HC of Ts65Dn mice relative to 2N mice” value was determined as 96%. The “L-DOPS levels in tissues” value in data set [3] (six hours after administration, 2N and Ts65Dn mice, L-DOPS 1 mg/g with carbidopa 0.125 mg/g) is on record as “present in all tissues, including brain”. Besides, the “L-DOPS tissue levels, difference between genotypes” value in data set [3] (six hours after administration, 2N vs Ts65Dn, p=0.4894) is given as “no difference between genotypes”. For the same compound, the nesting behavior entry in the data set with Ts65Dn mice [4] (drug period: L-DOPS 20 mg/ml + carbidopa 2.5 mg/ml, 50 μl/g s.c., p=0.0245) was “improved nesting; also recorded: significant improvement in the nesting behavior”. Also, in the data set with Ts65Dn mice [4] (no treatment (washout) period of two weeks, p=0.0121), the “nesting behavior after cessation of treatment” value is “again showed poor nesting behavior; also recorded: vanished 2 weeks later”. For the same compound, in the data set with Ts65Dn mice [5] (6-month-old Ts65Dn mice, 20 mg/ml L-DOPS + 2.5 mg/ml carbidopa, 50 μl/g s.c., 5 hours before each test, control carbidopa alone), the “contextual memory / contextual learning (freezing on contextual day)” value is “significant improvement in contextual memory; also recorded: found to restore contextual learning; also recorded: able to alleviate cognitive failure; also recorded: contextual learning failure was reversed; also recorded: acted to restore contextual learning”. In addition, in the data set on Ts65Dn mice [5] (L-DOPS + carbidopa treated 2N vs Ts65Dn, One-way ANOVA p=0.5247), the “difference in freezing between 2N and Ts65Dn mice in contextual test” value is given as “restored fully the difference in freezing; also recorded: no significant difference between the two groups”. Also, the “freezing measured on a minute-by-minute basis in contextual test” value with Ts65Dn mice [5] (L-DOPS + carbidopa treated Ts65Dn mice) is “increased freezing following the first minute”. Besides, the “reduction of the deficiency in Ts65Dn mice” value in the data set with Ts65Dn mice [5] (L-DOPS treatment versus no treatment) turned out to be 80%. The “how much less Ts65Dn mice remembered than their controls after treatment” value with Ts65Dn mice [5] (after treatment with L-DOPS, without treatment 44% less) came to 8%.

Consider `O=C(NCCNCC(O)COc1ccc(O)cc1)N1CCOCC1` (stereo not drawn) [xamoterol], for which the “contextual learning / contextual discrimination (freezing on contextual day)” value with Ts65Dn mice [5] (9-month-old Ts65Dn mice, xamoterol 3 mg/kg s.c. 1 hour before each test, control saline) was “restored failed contextual learning; also recorded: found to restore contextual learning; also recorded: contextual learning failure was reversed; also recorded: acted to restore contextual learning; also recorded: significant improvement; also recorded: significant restoration of contextual discrimination”. Further, the “difference between 2N and Ts65Dn mice in percent of freezing on contextual day” value with Ts65Dn mice [5] (xamoterol treated 2N vs Ts65Dn, ANOVA F=0.392, p=0.844) is “no longer any differences were found”.
